Measured values from ChEMBL document CHEMBL5131437, “Development of novel 2-aminoalkyl-6-(2-hydroxyphenyl)pyridazin-3(2H)-one derivatives as balanced multifunctional agents against Alzheimer's disease” (Eur J Med Chem, 2022).

Key:
[1] = target: Amyloid-beta precursor protein (Homo sapiens) (UniProt P05067); assay: Inhibition of self-induced amyloid beta (1 to 42) (unknown origin) aggregation by Thioflavin T based fluorometric assay relative to control; set-up: concentration or dose not given beside the values; conditions: concentration not given here
Amyloid-beta precursor protein (Homo sapiens), sequence (P05067 whole entry): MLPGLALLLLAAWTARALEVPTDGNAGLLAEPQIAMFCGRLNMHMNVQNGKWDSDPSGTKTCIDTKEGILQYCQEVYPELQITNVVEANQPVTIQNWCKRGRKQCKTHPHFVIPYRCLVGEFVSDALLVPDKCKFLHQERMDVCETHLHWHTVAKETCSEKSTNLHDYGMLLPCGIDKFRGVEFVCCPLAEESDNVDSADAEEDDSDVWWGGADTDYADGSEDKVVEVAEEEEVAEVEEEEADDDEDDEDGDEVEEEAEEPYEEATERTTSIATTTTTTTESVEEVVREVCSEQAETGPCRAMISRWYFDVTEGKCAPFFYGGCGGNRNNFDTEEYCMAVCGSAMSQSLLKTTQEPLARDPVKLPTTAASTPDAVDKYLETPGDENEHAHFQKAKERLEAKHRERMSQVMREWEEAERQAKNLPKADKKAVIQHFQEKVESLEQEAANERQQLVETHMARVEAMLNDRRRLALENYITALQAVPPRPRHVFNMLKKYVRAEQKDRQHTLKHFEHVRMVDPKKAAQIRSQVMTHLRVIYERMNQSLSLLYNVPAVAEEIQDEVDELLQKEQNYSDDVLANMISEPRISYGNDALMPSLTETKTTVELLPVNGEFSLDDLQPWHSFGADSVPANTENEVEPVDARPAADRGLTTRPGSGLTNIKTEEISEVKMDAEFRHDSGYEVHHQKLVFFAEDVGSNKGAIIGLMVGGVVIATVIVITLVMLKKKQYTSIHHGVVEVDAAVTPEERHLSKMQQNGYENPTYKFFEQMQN

[2] = target: Acetylcholinesterase (Electrophorus electricus, UniProt O42275); assay: Inhibition of electric eel AChE by Ellman's method
Acetylcholinesterase, sequence (O42275 whole entry): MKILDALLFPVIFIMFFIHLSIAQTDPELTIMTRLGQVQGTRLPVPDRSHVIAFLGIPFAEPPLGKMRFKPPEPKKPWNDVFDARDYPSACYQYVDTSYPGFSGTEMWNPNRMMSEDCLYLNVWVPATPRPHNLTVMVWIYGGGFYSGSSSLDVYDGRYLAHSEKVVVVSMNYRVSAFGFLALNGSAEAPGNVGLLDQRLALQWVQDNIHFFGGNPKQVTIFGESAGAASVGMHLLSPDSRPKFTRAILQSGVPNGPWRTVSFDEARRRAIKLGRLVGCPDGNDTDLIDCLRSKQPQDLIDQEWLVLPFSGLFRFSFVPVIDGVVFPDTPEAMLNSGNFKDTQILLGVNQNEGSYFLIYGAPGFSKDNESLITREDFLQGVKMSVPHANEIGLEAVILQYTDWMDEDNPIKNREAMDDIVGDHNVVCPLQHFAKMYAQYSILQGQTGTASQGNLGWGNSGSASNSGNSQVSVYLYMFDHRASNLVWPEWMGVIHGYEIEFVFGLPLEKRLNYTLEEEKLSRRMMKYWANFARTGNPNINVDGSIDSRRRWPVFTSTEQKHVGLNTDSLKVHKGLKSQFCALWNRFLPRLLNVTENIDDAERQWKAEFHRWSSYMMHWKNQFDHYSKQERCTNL

[3] = Antioxidant activity of compound assessed as trolox equivalent of ORAC radical scavenging activity by ORAC-FL assay; type: functional
[4] = test system: Butyrylcholinesterase (Rattus norvegicus); assay: Inhibition of rat serum BuChE at 10 uM by Ellman's method relative to control
[5] = target: Amyloid-beta precursor protein (Homo sapiens) (UniProt P05067); assay: Inhibition of self-induced amyloid beta (1 to 42) (unknown origin) disaggregation by Thioflavin T based fluorometric assay relative to control; set-up: concentration or dose not given beside the values; conditions: concentration not given here

Structure (SMILES) | inhibition [1] [%] | IC50 ([2]; read-out: IC50) [nM] | Activity [3] | inhibition [4] [%] | IC50 ([2]; read-out: pIC50 (converted)) [nM] | inhibition [5] [%]
CCN(CCCCCCn1nc(-c2cc(F)ccc2O)ccc1=O)Cc1cccc(F)c1 | 33.8 | 250 | 0.75 | 33 |  | 
CCN(CCCCCCn1nc(-c2cc(OC)ccc2O)ccc1=O)Cc1ccccc1OC |  | 630 | 1.96 | 27.3 |  | 
CCN(CCCCCCn1nc(-c2ccccc2O)ccc1=O)Cc1cccc(Cl)c1 |  | 2930 | 1.56 | 17.6 |  | 
CCN(CCCCCCn1nc(-c2cc(Br)ccc2O)ccc1=O)Cc1ccccc1OC |  | 880 | 1.53 | 34.2 |  | 
CCN(CCCCCCn1nc(-c2cc([N+](=O)[O-])ccc2O)ccc1=O)Cc1cccc(F)c1 |  | 1000 | 0.29 | 33.3 |  | 
CCN(CC)CCCCCCn1nc(-c2ccccc2O)ccc1=O | 33.8 | 2480 | 2.69 | 13.4 |  | 
CN(CCCCCCn1nc(-c2ccccc2O)ccc1=O)Cc1ccccc1 |  | 930 | 2.78 | 28.6 |  | 
CCN(CCCCCCn1nc(-c2ccccc2O)ccc1=O)Cc1ccccc1C |  | 2540 | 2.54 | 13.6 |  | 
CCN(CCCCCCn1nc(-c2ccccc2O)ccc1=O)Cc1ccccc1OC | 36.1 | 740 | 2.76 | 24.5 | 372 | 
O=c1ccc(-c2ccccc2O)nn1CCCCCCN1CCc2ccccc2C1 |  | 2580 | 2.58 | 21.7 |  | 
O=c1ccc(-c2ccccc2O)n[nH]1 |  |  | 2.15 | < 5 |  | 
CCN(CCCCCCn1nc(-c2ccccc2O)ccc1=O)Cc1ccc(F)cc1 |  | 8580 | 2.26 | 9.3 |  | 
CCN(CCCCCCn1nc(-c2cc(OC)ccc2O)ccc1=O)Cc1cccc(F)c1 |  | 2300 | 1.95 | 17.4 |  | 
CCN(CCCCCCn1nc(-c2ccc(OC)cc2O)ccc1=O)Cc1ccccc1N(C)C | 34.3 | 1590 | 3.55 | 19.2 |  | 
CCN(CCCCCCn1nc(-c2cc(N(C)C)ccc2O)ccc1=O)Cc1cccc(F)c1 | 97 | 350 | 2.34 | 15 |  | 80.7
CCN(CCCCCCn1nc(-c2cc(Cl)ccc2O)ccc1=O)Cc1cccc(F)c1 |  | 1430 | 0.84 | 15.8 |  | 
O=c1ccc(-c2ccccc2O)nn1CCCCCCN1CCCC1 |  | 1600 | 2.98 | 15.7 |  | 
CCN(CCCCCCn1nc(-c2cc(NC(C)=O)ccc2O)ccc1=O)Cc1ccccc1N(C)C | 44 | 86 | 2.61 | 14.4 |  | 38.4
CCN(CCCCCCn1nc(-c2cc(Br)ccc2O)ccc1=O)Cc1ccccc1N(C)C |  | 250 | 1.48 | 32.2 |  | 
CCN(CCCCCCOc1ccc(-c2cc(N(C)C)ccc2O)nn1)Cc1ccccc1N(C)C | 95.2 | 2180 | 2.28 | 16.6 |  | 85.4
CCN(CCCCCCn1nc(-c2ccc(F)cc2O)ccc1=O)Cc1ccccc1N(C)C |  | 1180 | 1.09 | 27.3 |  | 
CCN(CCCCCCn1nc(-c2ccc(N(C)C)cc2O)ccc1=O)Cc1ccccc1N(C)C | 71.3 | 2160 | 2.49 | 17.6 |  | 67.8
CCN(CCCCCCn1nc(-c2cc(Br)ccc2O)ccc1=O)Cc1cccc(F)c1 |  | 2570 | 0.98 | 12.9 |  | 

Structure (SMILES) | inhibition [1] [%] | IC50 ([2]; read-out: IC50) [nM] | Activity [3] | inhibition [4] [%] | IC50 ([2]; read-out: pIC50 (converted)) [nM] | inhibition [5] [%]
CCN(CCCCCCCCn1nc(-c2cc(N(C)C)ccc2O)ccc1=O)Cc1ccccc1N(C)C | 97.4 | 16500 | 3.31 | 32.1 |  | 86.9
CCN(CCCCCCOc1ccc(-c2ccccc2O)nn1)Cc1cccc(F)c1 | 26.4 | 4260 | 0.54 | 18.5 |  | 
CCN(CCCCCCOc1ccc(-c2ccccc2O)nn1)Cc1ccc(F)cc1 |  | 49000 | 0.61 | < 5 |  | 
CCN(CCCCCCCCn1nc(-c2cc(NC(C)=O)ccc2O)ccc1=O)Cc1ccccc1N(C)C | 95.2 | 2720 | 3.56 | 36.4 |  | 
CCN(CCCCCCn1nc(-c2cc(N(C)C)ccc2O)ccc1=O)Cc1ccccc1OC | 93.9 | 1210 | 2.17 | 16.7 |  | 79.2
CCN(CCCCCCn1nc(-c2cc(C)ccc2O)ccc1=O)Cc1cccc(F)c1 |  | 890 | 1.14 | 29.2 |  | 
CCN(CCCCCCn1nc(-c2cc([N+](=O)[O-])ccc2O)ccc1=O)Cc1ccccc1N(C)C |  | 460 | 0.42 | 28.3 |  | 
CCN(CCCCCCn1nc(-c2cc(Cl)ccc2O)ccc1=O)Cc1ccccc1N(C)C |  | 740 | 1.09 | 27.3 |  | 
CCN(CCCCCCn1nc(-c2cc(NC(C)=O)ccc2O)ccc1=O)Cc1ccccc1OC | 42.6 | 370 | 2.06 | 8.02 |  | 38.7
CCN(CCCCCCn1nc(-c2cc(NC(C)=O)ccc2O)ccc1=O)Cc1cccc(F)c1 | 38.8 | 69 | 2.1 | 17.7 |  | 
CCN(CCCCCCn1nc(-c2cc(Cl)ccc2O)ccc1=O)Cc1ccccc1OC |  | 9250 | 0.96 | 24.3 |  | 
CCN(CCCCCCn1nc(-c2cccc(N(C)C)c2O)ccc1=O)Cc1ccccc1N(C)C | 57.9 | 4780 | 2.03 | 18.8 |  | 53
COc1ccccc1CN(C)CCCCCCn1nc(-c2ccccc2O)ccc1=O | 30.9 | 1070 | 2.89 | 22.6 | 85.1 | 
CCN(CCCCCCOc1ccc(-c2cc(N(C)C)ccc2O)nn1)Cc1cccc(F)c1 | 96.3 | 2270 | 1.29 | 19.3 |  | 85.1
O=c1ccc(-c2ccccc2O)nn1CCCCCCN1CCCCC1 |  | 4560 | 3.34 | 25.6 |  | 
CCN(CCCCCCn1nc(-c2cc([N+](=O)[O-])ccc2O)ccc1=O)Cc1ccccc1OC |  | 1160 | 0.27 | 31.8 |  | 
CCN(CCCCCCn1nc(-c2ccccc2O)ccc1=O)Cc1ccc(N(C)C)cc1 | 51.9 | 9210 | 3.63 | < 5 |  | 
CCN(CCCCCCn1nc(-c2cc(C)ccc2O)ccc1=O)Cc1ccccc1N(C)C |  | 280 | 1.26 | 23.9 |  | 
CCN(CCCCCCn1nc(-c2ccccc2O)ccc1=O)Cc1ccccc1F | 27.4 | 1030 | 2.43 | 15.7 |  | 
CCN(CCCCCCn1nc(-c2cc(C)ccc2O)ccc1=O)Cc1ccccc1OC |  | 1650 | 1.38 | 38.9 |  | 
CCN(CCCCCCn1nc(-c2ccccc2O)ccc1=O)Cc1ccccc1 | 15.4 | 910 | 2.96 | 25.7 |  | 
CCN(CCCCCCn1nc(-c2ccccc2O)ccc1=O)Cc1ccccc1Cl |  | 2310 | 1.72 | 19.6 |  | 
